Experiments:
[1] = pKa of in situ prepared complexes by pH-potentiometry; format: physicochemical; details: I = 0.20 M KNO3
Text: The results, shown in Table 2, indicate good agreement between the data obtained by the different methods. It should be noted that these processes show overlap in all cases, and therefore, the assignment of the pKa values to the given moieties cannot be made reliably. However, by comparing the spectral changes with those observed for HQ and other simple derivatives,[25] it can be concluded that the lower pKa likely belongs to the deprotonation of the aqua coligand.
The pH-potentiometric measurements were carried out at 25.0 ± 0.1 °C in water in the pH range between 2.0 and 11.5 and at a constant ionic strength of 0.20 M KNO3. The titrations were performed in a carbonate-free KOH solution (0.20 M). The exact concentrations of the HNO3 and KOH solutions were determined by pH-potentiometric titrations. An Orion 710A pH-meter equipped with a Metrohm combined electrode (type 6.0234.100) and a Metrohm 665 Dosimat buret were used for this purpose. […] The average water ionization constant, pKw, was determined as 13.76 ± 0.01, which is in good agreement with the literature data.[67] The initial volume of the samples was 10.0 mL. […] Samples were degassed by bubbling purified argon through them for about 10 min prior to the measurements, and the inert gas was also passed over the solutions during the titrations. The computer program Hyperquad2013[64] was utilized to establish the stoichiometry of the species and to calculate the equilibrium constants.

[2] = H2O/Cl– coligand exchange by UV–vis titration with chloride ions; format: physicochemical; details: RhCp* complexes titrated at pH 7.4
Experimental: When the isolated complexes (1–4) are dissolved in water, their chlorido coligand can be replaced by water, or vice versa in the aqua complexes [M(arene)(HL)(H2O)]^2+, the H2O → Cl^– exchange process can take place in the presence of chloride ions. The chloride ion affinity of the complexes was also investigated by UV–vis spectrophotometry. RhCp* and RuCym complexes were titrated with chloride ions at pH 7.4 and 6.0, respectively. For this experiment, pH values were chosen at which the formation of the mixed hydroxido species is negligible. A representative spectrum series for complex (4) is shown in Figure S27, and the calculated conditional exchange constants (logK’ (H2O/Cl^–)) are given in Table 2 and in Figure S23. […] The complexes of the amino acid hybrids HQCl-D-Pro and HQCl-D-hPro have lower logK’ (H2O/Cl^–) constants most likely due to the repulsive effect of the nearby COO^– group.[26]

[3] = system: MES-SA/Dx5; assay: Cytotoxicity in triple coculture, MES-SA/Dx5 eGFP; format: cell-based, human
Experimental: Cell lines were purchased from the American Type Culture Collection (ATCC). MES-SA/B1 is a human MDR1-transfected derivative of MES-SA, and MES-SA mCherry, MES-SA/B1 mOrange, and MES-SA/Dx5 eGFP were engineered to stably express the respective fluorescent proteins previously.[62] Cells were kept in culture medium (DMEM) supplemented with 10% fetal bovine serum, 2 mM L-glutamine, 100 units/mL penicillin, and 100 μg/mL streptomycin (Thermo Fisher). One week before use, MES-SA/Dx5 eGFP cells were treated with 0.5 μM doxorubicin to ensure ABCB1/P-gp expression.
The tested compounds were dissolved in 50% (v/v) DMSO/PBS’ buffer to prepare 5–10 mM stock solutions, which were diluted in complete culture medium. Constitutive expression of the fluorescent proteins allowed multiplexing in cytotoxicity experiments.[62] Cells were mixed before seeding in 384-well plates: in double cocultures, MES-SA mCherry and MES-SA/Dx5 eGFP cells were seeded at 1250–1250 cells/well (in total 2500 cells/well); while in triple cocultures, MES-SA mCherry, MES-SA/Dx5 eGFP and MES-SA/B1 mOrange cells were seeded at 800–800–800 cells/well (in total 2400 cells/well). Serial dilutions of the compounds were added 24 h after seeding. To address the effect of P-gp function, TQ was added at a nontoxic concentration (0.4 μM) 15 min before the test compounds. The intensity of the fluorescent proteins, which is proportional to cell mass, was measured after 144 h of incubation at the respective fluorescent channels (excitation/emission: eGFP: 485 nm/510 nm; mOrange: 545 nm/567 nm; mCherry: 585 nm/610 nm). pIC50 values were calculated by a custom program written by Judit Sessler in C#.[62] IC50 values and standard deviation were calculated from average pIC50 values from at least 3 independent measurements.

[RhCp*(HQCl-Pip)Cl]Cl [(3)]
pKa (H2O) [1]: 9.39 ± 0.07 | pKa (Npyr/pipH+) [1]: 10.41 ± 0.10 | logK’ (H2O/Cl–) [2]: 2.21 ± 0.03 | SR Dx5 = IC50 (MES-SA)/IC50 (MES-SA/Dx5) [3]: 11.1 | IC50 ([3]; 144 h): 190 nM

Source: publication PMC11653257, “Organometallic Half-Sandwich Complexes of 8-Hydroxyquinoline-Derived Mannich Bases with Enhanced Solubility: Targeting Multidrug Resistant Cancer” (Inorganic Chemistry, 2024)
